Key:
[1] = In vitro metabolism, cryopreserved hepatocytes; type: in vitro ADME, dog
Method: Cell viability was determined using trypan blue exclusion. The incubation was performed on a plate shaker (Heidolph Titrimax 100, 900 rpm) placed in a humidified incubator (37°C, 7.5% CO2) for 240 min. The reaction was initiated with the addition of compound with samples taken periodically and quenched with the addition of acetonitrile containing internal standards (metolazone and diazepam). Quenched samples were maintained on ice for approximately 20-30 min, centrifuged (for 5 min) and the supernatant analyzed by LC-MS.
In vitro intrinsic clearance (CLint, μL/min/mg or μL/min/10^6 cells) values were calculated from the apparent first order degradation rate constant divided by the microsome concentration or the hepatocyte cell number (10^6 viable cells/mL). In vitro CLint values were then divided by the fraction unbound in the in vitro test system (to give CLint,u) and scaled to in vivo values (mL/min/kg) using published physiological scaling factors ([28]). Blood clearance in each species was then calculated using the well-stirred model of hepatic extraction (equation 2) where Q is the hepatic blood flow and fu,blood is calculated from fu,plasma/B:P: [2] PredictedCLblood=Q x fu,blood x CLint,u/Q+fu,blood x CLint,u
Blood clearance values were converted to plasma clearance by multiplying by the B:P.

L. donovani = assay: Leishmania intramacrophage in vitro assay; type: cell-based
Method: A drug incubation period of 96 h was applied, and cells were stained with Giemsa for microscopic evaluation of cellular amastigote burdens. Percentage reduction compared to the burden in the infected non-treated control wells was used as a measure for drug activity.
Alternatively, differentiated macrophage host cells derived from THP-1 (human leukemia monocytes) were infected at a multiplicity of infection of 1:2.5 (ratio of host cells to parasites) with L. donovani MHOM/IN/80/DD8 culture-maintained promastigotes. L. donovani MHOM/IN/80/DD8 (ATCC 50212) promastigote parasites and THP-1 (ATCC TIB202) cells were maintained as previously described ([20]). A drug incubation period of 96 h was applied, plates fixed with 4% paraformaldehyde and stained with SYBR® green and CellMask Deep Red™ (ThermoFisher Scientific). Images were acquired on an Opera high-content imaging system (PerkinElmer). Healthy host (THP-1) cells and intracellular amastigotes were identified using CellMask Deep Red cytoplasmic and SYBR green nuclear area and intensities, with intracellular parasites identified based on spot detection algorithms (size and intensity measurements used to define parasite nucleus) to determine the number of parasites present within THP-1 host cells. An infected cell was defined as a host cell containing >3 parasites within the cytoplasm boundary. Compound activity was determined based on the number of infected cells normalized to the positive (10μM DNDI-1044) and negative (0.4% DMSO) controls. Non-linear sigmoidal dose-response curves with no constraints were plotted, and IC50 was calculated. The IC50s were calculated from two independent experiments.

[2] = test system: Salmonella typhimurium strains TA1535, TA1537, TA98 and TA100, and Escherichia coli WP2 uvrA (pKM101); assay: Ames test; type: cell-based; conditions: absence or presence of rat liver S9
Method: Salmonella typhimurium strains TA1535, TA1537, TA98 and TA100, and Escherichia coli WP2 uvrA (pKM101) were employed. Positive controls were respectively sodium azide (2 μg/plate), 9-amino acridine (50 μg/plate), 2-nitrofluorene (1 μg/plate), sodium azide (2 μg/plate) and 4-nitroquinoline-1-oxide (2 μg/plate). The negative control was DMSO.

[3] = Plasma protein binding (rapid equilibrium dialysis); type: in vitro ADME; conditions: diluted to 10% in PBS, pH 7.4
Method: Human plasma was purchased from Innovative Research, Inc (Novi, MI, USA). Dog (beagle), rat (Sprague Dawley) and hamster (golden Syrian) plasma were procured from Valley Biomedical Products and Services, Inc. (Winchester, VA, USA). Mouse (BALB/c) plasma was collected in-house (animals sourced from Monash Animal Services, Monash University). All plasma was stored frozen at -20°C until use.
Plasma protein binding was assessed using rapid equilibrium dialysis (RED) according to methods published previously ([10]). […] Parallel spiked aliquots of 10% plasma were used to assess compound stability under the same incubation conditions. At the completion of the dialysis period, aliquots were taken from the donor and dialysate chambers to obtain measurements of the total and free concentration, respectively. The pH of the matrix and dialysate were confirmed to be within pH 7.4 ± 0.1 for the duration of the experiment.
Dialysis was conducted for 6 h and parallel non-dialyzed samples were included to confirm the absence of compound degradation. Binding to hepatocytes (at a cell density of 1 x 10^6 cells/mL) was calculated from the measured microsomal binding (at 1 mg/mL) as described previously ([26]). The fraction unbound (fu) was determined from the ratio of the dialysate to the donor concentration, assuming that the system was at steady state at the end of the dialysis period. For plasma, the data were corrected for the dilution factor to give a binding value for neat plasma according to previously published methods ([27]).

[4] = L. donovani MHOM/ NP/2003/ BPK282/0-cl4
[5] = L. donovani MHOM/ET/2007/LLM-1600
[6] = L. donovani MHOM/NP/03/BPK275/0-cl18

With `Cc1[nH]c2nc(N)nc(C)c2c1-c1ccc(C#N)c2c1OCO2` [DNDI-6174] the “Hepatocyte predicted in vivo CLplasma” value ([1]; Dog) was 0.30 mL/min/kg, the hepatocyte CLint at 0.5 µM ([1]; dog, cryopreserved hepatocytes) was 1 ± 0.27 µL/min/1e6 cells and the EC50 (L. donovani; [4]) was 50 nM. For the same compound, the EC90 (L. donovani; [4]) was 140 nM, the EC50 (L. donovani; L. donovani MHOM/ET/67/HU3) was 90 nM and the EC90 (L. donovani; L. donovani MHOM/ET/67/HU3) was 2000 nM. For the same compound, the EC50 (L. donovani; [5]) was 80 nM, the EC90 (L. donovani; [5]) was 280 nM and the EC50 (L. donovani; L. donovani MHOM/IN/80/DD8) was 170 nM. For the same compound, the EC90 (L. donovani; L. donovani MHOM/IN/80/DD8) was 490 nM, the EC50 (L. donovani; [6]) was 40 nM and the EC90 (L. donovani; [6]) was 120 nM. For the same compound, the “mutagenic potential (AMES), in words” value [2] was “did not show intrinsic mutagenic potential”, the fraction unbound at 24 h ([3]; BALB/c, mouse) was 0.12 and the fraction unbound at 24 h ([3]; Sprague Dawley, rat) was 0.069. The fraction unbound at 24 h ([3]; beagle, dog) was 0.05, the fraction unbound at 24 h ([3]; golden Syrian, hamster) was 0.09 and the fraction unbound at 24 h ([3]; human) was 0.059.

Source: PMC7615677 (Science translational medicine, 2023)
